The text below walks through data of patent US7842838B2, “Pyrro[1,2-b]pyridazinone intermediates” (Anadys Pharmaceuticals, Inc., priority 2006, dated 2010).

Where only a bound is given, the exact number is not on record here.

A word on the IC50: it is the concentration needed to halve the response being measured.

NS5B polymerase, sequence (P26663 2420-3010): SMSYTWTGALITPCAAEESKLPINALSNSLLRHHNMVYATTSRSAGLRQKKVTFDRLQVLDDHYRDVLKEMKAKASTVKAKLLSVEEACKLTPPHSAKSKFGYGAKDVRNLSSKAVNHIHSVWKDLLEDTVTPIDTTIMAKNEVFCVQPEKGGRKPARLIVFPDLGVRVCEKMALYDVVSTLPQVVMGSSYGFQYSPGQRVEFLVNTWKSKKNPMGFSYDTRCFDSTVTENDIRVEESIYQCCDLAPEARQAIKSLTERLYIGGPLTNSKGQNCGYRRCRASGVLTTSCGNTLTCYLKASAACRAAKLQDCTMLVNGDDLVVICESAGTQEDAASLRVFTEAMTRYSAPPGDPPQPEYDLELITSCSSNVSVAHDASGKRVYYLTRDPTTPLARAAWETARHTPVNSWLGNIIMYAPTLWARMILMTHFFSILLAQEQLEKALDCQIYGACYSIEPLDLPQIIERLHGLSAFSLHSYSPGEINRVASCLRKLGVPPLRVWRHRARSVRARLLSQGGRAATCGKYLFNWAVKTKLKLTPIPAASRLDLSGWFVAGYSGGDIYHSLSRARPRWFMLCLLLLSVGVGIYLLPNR

The first test addresses NS5B polymerase (Hepatitis C virus genotype 1b, UniProt P26663). The test is described as follows: HCV NS5B polymerase inhibition assay (streptavidin-coated FlashPlate, [α-33P]GTP incorporation). The format is biochemical.
Details: not given
The method, then: Compounds were tested for HCV polymerase inhibition. Assays were performed in a 96-well streptavidin-coated FlashPlate using 20 nM enzyme, 0.5 μCi of [α-^33P]GTP, 0.6 μM GTP, and 250 nM 5′biotinylated oligo (rG13)/poly rC in 20 mM Tris-HCl, pH 7.5, 5 mM MgCl2, 5 mM dithiothreitol, […] bovine serum albumin, and 100 U/mL RNAse inhibitor. The reaction was stopped by aspiration after 75 min at 28° C. and the plate was washed several times. After washing and drying the plate, incorporated radioactivity was counted using a Microbeta scintillation counter. IC50 values were calculated relative to the uninhibited control and inhibition data were fitted to a 4-parameter IC50 equation.
The molecule `CS(=O)(=O)Nc1ccc2c(c1)S(=O)(=O)N=C(c1c(O)c3cccn3n(Cc3ccc(F)c(Cl)c3)c1=O)N2` [Example 17, N-{3-[1-(3-Chloro-4-fluoro-benzyl)-4-hydroxy-2-oxo-1,2-dihydro-pyrrolo[1,2-b]pyridazin-3-yl]-1,1-dioxo-1,4-dihydro-1λ^6-benzo[1,2,4]thiadiazin-7-yl}-methanesulfonamide] returned an IC50 of less than 0.1 µM. In the case of `CC(C)CCn1c(=O)c(C2=Nc3ccc(NS(C)(=O)=O)cc3S(=O)(=O)N2)c(O)c2cccn21` [Example 3, N-{3-[4-Hydroxy-1-(3-methyl-butyl)-2-oxo-1,2-dihydro-pyrrolo[1,2-b]pyridazin-3-yl]-1,1-dioxo-1,4-dihydro-1λ^6-benzo[1,2,4]thiadiazin-7-yl}-methanesulfonamide], the IC50 is less than 0.1 µM.

The same test, now with this note: 20 nM enzyme, 75 min at 28° C.; read-out: NS5B Polymerase IC50.
With `CC(C)CCn1c(=O)c(C2=NS(=O)(=O)c3ccccc3N2)c(O)c2cccn21` [Example 1, 3-(1,1-Dioxo-1,4-dihydro-1λ^6-benzo[1,2,4]thiadiazin-3-yl)-4-hydroxy-1-(3-methyl-butyl)-pyrrolo[1,2-b]pyridazin-2-one], the IC50 lay in the range of 0.1 to 3 µM. Still for that read-out and setting: for `CC(C)CCn1c(=O)c(C2=NS(=O)(=O)c3cc(NS(=O)(=O)C4CC4)ccc3N2)c(O)c2cccn21` [Example 13, Cyclopropanesulfonic acid {3-[4-hydroxy-1-(3-methyl-butyl)-2-oxo-1,2-dihydro-pyrrolo[1,2-b]pyridazin-3-yl]-1,1-dioxo-1,4-dihydro-1λ^6-benzo[1,2,4]thiadiazin-7-yl}-amide] the value was 0.1 to 3 µM; for `CC(C)(C)CCn1c(=O)c(C2=NS(=O)(=O)c3cc(NS(C)(=O)=O)ccc3N2)c(O)c2cccn21` [Example 4, N-{3-[1-(3,3-Dimethyl-butyl)-4-hydroxy-2-oxo-1,2-dihydro-pyrrolo[1,2-b]pyridazin-3-yl]-1,1-dioxo-1,4-dihydro-1λ^6-benzo[1,2,4]thiadiazin-7-yl}-methanesulfonamide], less than 0.1 µM. For the molecule `CC(C)CCn1c(=O)c(C2=NS(=O)(=O)c3cc(NS(C)(=O)=O)ccc3N2)c(O)c2cc(F)cn21` [Example 14, N-{3-[6-Fluoro-4-hydroxy-1-(3-methyl-butyl)-2-oxo-1,2-dihydro-pyrrolo[1,2-b]pyridazin-3-yl]-1,1-dioxo-1,4-dihydro-1λ^6-benzo[1,2,4]thiadiazin-7-yl}-methanesulfonamide], the IC50 is less than 0.1 µM. Same read-out and setting: for `CC(C)CCn1c(=O)c(C2=NS(=O)(=O)c3cc(N(C)S(C)(=O)=O)ccc3N2)c(O)c2cccn21` [Example 6, N-{3-[4-Hydroxy-1-(3-methyl-butyl)-2-oxo-1,2-dihydro-pyrrolo[1,2-b]pyridazin-3-yl]-1,1-dioxo-1,4-dihydro-1λ^6-benzo[1,2,4]thiadiazin-7-yl}-N-methyl-methanesulfonamide] the value was 0.1 to 3 µM.

Regarding `CC(C)(C)CCn1c(=O)c(C2=CS(=O)(=O)c3cc(NS(C)(=O)=O)ccc3N2)c(O)c2cccn21` [Example 8, N-{3-[1-(3,3-Dimethyl-butyl)-4-hydroxy-2-oxo-1,2-dihydro-pyrrolo[1,2-b]pyridazin-3-yl]-1,1-dioxo-1,4-dihydro-1λ^6-benzo[1,4]thiazin-7-yl}-methanesulfonamide], the IC50 was less than 0.1 µM. Turning to `O=c1c(C2=NS(=O)(=O)c3ccccc3N2)c(O)c2cccn2n1Cc1ccc(F)cc1` [Example 12, 3-(1,1-Dioxo-1,4-dihydro-1λ^6-benzo[1,2,4]thiadiazin-3-yl)-1-(4-fluoro-benzyl)-4-hydroxy-pyrrolo[1,2-b]pyridazin-2-one], the IC50 was 0.1 to 3 µM. For `CC(C)CCn1c(=O)c(C2=CS(=O)(=O)c3cc(N(C)S(C)(=O)=O)ccc3N2)c(O)c2cccn21` [Example 7, N-{3-[4-Hydroxy-1-(3-methyl-butyl)-2-oxo-1,2-dihydro-pyrrolo[1,2-b]pyridazin-3-yl]-1,1-dioxo-1,4-dihydro-1λ^6-benzo[1,4]thiazin-7-yl}-N-methyl-methanesulfonamide], the IC50 lay within 0.1 to 3 µM. The same measure, in the same setting: for `O=c1c(C2=NS(=O)(=O)c3cc(C4CCCS4(=O)=O)ccc3N2)c(O)c2cccn2n1Cc1ccc(F)cc1` (centres unmarked) [Example 11, 3-[7-(1,1-Dioxo-tetrahydro-1λ^6-thiophen-2-yl)-1,1-dioxo-1,4-dihydro-1λ^6-benzo[1,2,4]thiadiazin-3-yl]-1-(4-fluoro-benzyl)-4-hydroxy-pyrrolo[1,2-b]pyridazin-2-one] the value was 0.1 to 3 µM; for `CS(=O)(=O)Nc1ccc2c(c1)S(=O)(=O)N=C(c1c(O)c3cccn3n(Cc3ccc(F)cc3)c1=O)N2` [Example 9, N-{3-[1-(4-Fluoro-benzyl)-4-hydroxy-2-oxo-1,2-dihydro-pyrrolo[1,2-b]pyridazin-3-yl]-1,1-dioxo-1,4-dihydro-1λ^6-benzo[1,2,4]thiadiazin-7-yl}-methanesulfonamide], less than 0.1 µM; for `COc1ccc2c(c1)S(=O)(=O)N=C(c1c(O)c3cccn3n(CCC(C)C)c1=O)N2` [Example 2, 4-Hydroxy-3-(7-methoxy-1,1-dioxo-1,4-dihydro-1λ^6-benzo[1,2,4]thiadiazin-3-yl)-1-(3-methyl-butyl)-pyrrolo[1,2-b]pyridazin-2-one], 0.1 to 3 µM. On the same count and under the same terms, the value for `CC(C)CCn1c(=O)c(C2=NS(=O)(=O)c3cc(NS(C)(=O)=O)ccc3N2)c(O)c2cc(C#N)cn21` [Example 15, N-{3-[6-Cyano-4-hydroxy-1-(3-methyl-butyl)-2-oxo-1,2-dihydro-pyrrolo[1,2-b]pyridazin-3-yl]-1,1-dioxo-1,4-dihydro-1λ^6-benzo[1,2,4]thiadiazin-7-yl}-methanesulfonamide] was 0.1 to 3 µM. Still for that read-out and setting: for `CN(c1ccc2c(c1)S(=O)(=O)N=C(c1c(O)c3cccn3n(Cc3ccc(F)cc3)c1=O)N2)S(C)(=O)=O` [Example 10, N-{3-[1-(4-Fluoro-benzyl)-4-hydroxy-2-oxo-1,2-dihydro-pyrrolo[1,2-b]pyridazin-3-yl]-1-dioxo-1,4-dihydro-1λ^6-benzo[1,2,4]thiadiazin-7-yl}-N-methyl-methanesulfonamide] the value was 0.1 to 3 µM; for `CN(c1ccc2c(c1)S(=O)(=O)N=C(c1c(O)c3cccn3n(CCC(C)(C)C)c1=O)N2)S(C)(=O)=O` [Example 5, N-{3-[1-(3,3-Dimethyl-butyl)-4-hydroxy-2-oxo-1,2-dihydro-pyrrolo[1,2-b]pyridazin-3-yl]-1,1-dioxo-1,4-dihydro-1λ^6-benzo[1,2,4]thiadiazin-7-yl}-N-methyl-methanesulfonamide], less than 0.1 µM; for `CC(C)CCn1c(=O)c(C2=CS(=O)(=O)c3cc(NS(C)(=O)=O)ccc3N2)c(O)c2cccn21` [Example 16, N-{3-[4-Hydroxy-1-(3-methyl-butyl)-2-oxo-1,2-dihydro-pyrrolo[1,2-b]pyridazin-3-yl]-1,1-dioxo-1,4-dihydro-1λ^6-benzo[1,4]thiazin-7-yl}-methanesulfonamide], less than 0.1 µM.
